Series [1] deals with skin. Nature of the series: Preparatory pinprick test of skin anesthesia effect, 3% absorption promoter and 2% lidocaine aqueous gel-ointment. The class given is in vivo, healthy adult (human). As to conditions: for time at which effect of the skin anesthesia began / time of complete skin anesthesia: after application, 3% promoter + 2% lidocaine; for skin anesthesia effect, in words: pinprick, up to 4 hours after application. As for the experimental part: Same as that in the experimental example 1.
A preparatory experiment was carried out to verify the skin anesthesia effect of various lidocaine aqueous gel-ointments when they are applied in the quantity of 0.3 g/4 cm^2.
Pinprick test was carried out to compare results utilizing lidocaine aqueous gel-ointment which was prepared by mixing the ointments d-h, Xylocaine Jelly (Trademark registered, containing 2% lidocaine, made by Fujisawa Pharmaceutical Co., Ltd.), Azone, a known percutaneous absorption promoter, sodium caprate (to be indicated as Cap Na hereinafter) and isopropyl myristate (to be indicated as IPM hereinafter).
The skin over which various ointments were applied was pierced several times using a 26 gauge intradermal needle at the time of 1, 1.5, 2, 3 and 4 hours after the application, and the degree of pain felt by the adult was evaluated according to a criterion given below.
++ No pain felt at the area where the ointment was applied.
+ Pain felt at some portions.
- Pain felt at that area.

The nature of series [2]: Acute toxic examination (LD50), oral, rat. As to conditions: in vivo. As for the experimental part: The results of acute toxic examination (LD50) which was carried out with the rat through the oral dose of the compound were follows.
Series [3] can be described thus: Lidocaine blood concentration after application of ointment to the rat abdomen (fluorescence polarization immunoassay). The class given is in vivo, Wistar rat. The source says: (1) Experimental Animal Wistar rat a. Aqueous gel ointment containing 2% of lidocaine. b. Aqueous gel ointment containing 10% of lidocaine. c. Aqueous gel ointment in (b) containing 3% of compound 4. e. Aqueous gel ointment in (a) containing 3% of compound 4. […] Group with an ointment a applied. Group with an ointment e applied. […] Group with an ointment c applied. Group with 3% Azone (Trademark registered)--10% lidocaine aqueous gel-ointment applied. […] In these groups, the rats had their body portion covered with a polyethylene food wrapping sheet at an area where an ointment was applied, and sealed by means of transparent tape. Then, a blood was withdrawn through a cannula which had been inserted into the carotid. The blood was pretreated with a heparin and separated by means of centrifugal separator to obtain blood plasma. A fluorescence polarization immunoassay was used to determine the concentration of the lidocaine in the blood.
In general terms: Polarisation of emitted light reports the rotation of a fluorescent probe.

Series [4] has as its system skin. Briefly: Double-blind pinprick procedure pain score at the vein puncture area in patients. The class given is in vivo, patient (human). As to conditions: ointment c versus ointment b, p<0.05. How it is done:
A patient who was to receive an operation.
The sponge was applied over an area in which the vein is punctured in accordance with a double-blind assay method. The area was sealed off with a transparent tape, and the topical reaction and the painless effect occurring on the skin were compared about 1 hour later.
The following pain score was employed as a criterion.
When the pain score was zero, the needle was pierced into the skin about 1.0 mm deep to verify the pain.

Data on six molecules can be found in patent US5622942A, “Percutaneous absorptive anesthetic” (priority 1993, dated 1997).

Molecules are shown by their SMILES.

For orientation: LD50 means the dose expected to kill half of the subjects tested. Take `CC1(C)[C@@H](OC(=O)c2ccccc2C(=O)O)CC[C@]2(C)[C@H]3C=CC4=C5C[C@@](C)(COC(=O)c6ccccc6C(=O)O)CC[C@]5(C)CC[C@@]4(C)[C@]3(C)CC[C@@H]12` [Compound 7, Olean-11,13(18)-diene-3 β, 30-diol-3 β, 30-dihemiphthalate]: in the series with skin [1], the “time at which effect of the skin anesthesia began” value (“time at which effect” below) came out at 1.5 h and the “time of complete skin anesthesia” value amounted to 2 h. The LD50 in series [2] lay in the range of 628 to 793 mg/kg.

`CC1(C)[C@@H](OC(=O)c2ccccc2C(=O)O)CC[C@]2(C)[C@H]3C(=O)C=C4[C@@H]5C[C@@](C)(C(=O)O)CC[C@]5(C)CC[C@@]4(C)[C@]3(C)CC[C@@H]12` [Compound 4, Glycyrrhetic acid 3β-monohemiphthalate]: the lidocaine blood concentration entry in series [3] (2% lidocaine ointments (groups 1 and 2), with or without 3% compound 4) is on record as “any significant result was not observed”. For the same molecule, in series [3] (10% lidocaine aqueous gel ointment (groups 3-5), 3% promoter, up to five hours), the “absorption promoting effect (lidocaine blood concentration)” value is “an absorption promoting effect of the compound 4 was acknowledged”. For the same molecule, in the series on skin [1], the “time at which effect” value is 1.5 h and the “time of complete skin anesthesia” value was 2 h. The “effect in removing the pain of the skin, in words” value with skin [4] is on record as “effective in removing the pain of the skin”. The molecule further showed an LD50 in series [2] of 1320 mg/kg.

For the molecule `CC1(C)[C@@H](OC(=O)c2ccccc2C(=O)O)CC[C@]2(C)[C@H]3CC=C4[C@@H]5C[C@@](C)(COC(=O)c6ccccc6C(=O)O)CC[C@]5(C)CC[C@@]4(C)[C@]3(C)CC[C@@H]12` [Compound 5, 18β-olean-12-ene-3 β, 30-diol-3 β, 30-dihemiphthalate], the “skin anesthesia effect, in words” value with skin [1] is reported as “skin anesthesia effect substantially equal to that by Azone”. In series [2], this molecule yielded a 50% lethal dose (LD50) of 1260 to 1520 mg/kg.

As to `CC1(C)[C@@H](OC(=O)CCC(=O)O)CC[C@]2(C)[C@H]3C(=O)C=C4[C@@H]5C[C@@](C)(C(=O)O)CC[C@]5(C)CC[C@@]4(C)[C@]3(C)CC[C@@H]12` [Compound 3, Glycyrrhetic acid 3β-monohemisuccinate], in the series on skin [1], the “time at which effect” value was determined as 1.5 h and the “time of complete skin anesthesia” value amounted to 2 h. In series [2], this molecule had an LD50 of 520 mg/kg.

Take `CCCCCCCCCCCCN1CCCCCC1=O` [Azone, reference compound]: the “absorption promoting effect (lidocaine blood concentration)” value in series [3] (rat, in vivo) is on record as “no major effect of improving absorption was found”.

With `CC1(C)[C@@H](OC(=O)c2ccccc2C(=O)O)CC[C@]2(C)C3=CC=C4[C@@H]5C[C@@](C)(COC(=O)c6ccccc6C(=O)O)CC[C@]5(C)CC[C@@]4(C)[C@]3(C)CC[C@@H]12` [Compound 6, 18β-olean-9(11), 12-diene-3 β, 30-diol-3 β, 30-dihemiphthalate], the “skin anesthesia effect, in words” value in the series with skin [1] was “skin anesthesia effect substantially equal to that by Azone”. The same molecule showed an LD50 in series [2] of 1280 to 1500 mg/kg.
